According to patent publication US20240067668A1, “HETEROARYL DERIVATIVE COMPOUND AND USE THEREOF” (VORONOI INC., priority 2020, published 2024):

Key:
EGFR Del19/T790M/C797S = EGFR Del19/T790M/C797S (Homo sapiens, UniProt P00533, C797S/T790M, form not given); assay: Enzyme IC50, EGFR Del19/T790M/C797S; assay type: biochemical
BaF3-EGFR (WT) cells = assay: Inhibitory activity on Ba/F3 cell proliferation (CellTiter-Glo, 72 hours); assay type: cell-based; conditions: Ba/F3 cells expressing EGFR WT
Summary of the method: (§1)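 Ba/F3 cells expressing wild-type EGFR or EGFR Del19/T790M/C797S, 3×10^3 per well, exposed 72 h at 37 °C to compound at 12 threefold dilutions, 0.00005-10 μM final. Viability by CellTiter-Glo 2.0; GI50 derived from growth relative to DMSO-treated cells.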

[1] = test system: BaF3-EGFR (Del19/T790M/C797S) cells; assay: as above; assay type: cell-based; conditions: Ba/F3 cells expressing EGFR Del19/T790M/C797S
Summary of the method: as §1

Chain of EGFR Del19/T790M/C797S (P00533 25-1210 T790M/C797S, form open): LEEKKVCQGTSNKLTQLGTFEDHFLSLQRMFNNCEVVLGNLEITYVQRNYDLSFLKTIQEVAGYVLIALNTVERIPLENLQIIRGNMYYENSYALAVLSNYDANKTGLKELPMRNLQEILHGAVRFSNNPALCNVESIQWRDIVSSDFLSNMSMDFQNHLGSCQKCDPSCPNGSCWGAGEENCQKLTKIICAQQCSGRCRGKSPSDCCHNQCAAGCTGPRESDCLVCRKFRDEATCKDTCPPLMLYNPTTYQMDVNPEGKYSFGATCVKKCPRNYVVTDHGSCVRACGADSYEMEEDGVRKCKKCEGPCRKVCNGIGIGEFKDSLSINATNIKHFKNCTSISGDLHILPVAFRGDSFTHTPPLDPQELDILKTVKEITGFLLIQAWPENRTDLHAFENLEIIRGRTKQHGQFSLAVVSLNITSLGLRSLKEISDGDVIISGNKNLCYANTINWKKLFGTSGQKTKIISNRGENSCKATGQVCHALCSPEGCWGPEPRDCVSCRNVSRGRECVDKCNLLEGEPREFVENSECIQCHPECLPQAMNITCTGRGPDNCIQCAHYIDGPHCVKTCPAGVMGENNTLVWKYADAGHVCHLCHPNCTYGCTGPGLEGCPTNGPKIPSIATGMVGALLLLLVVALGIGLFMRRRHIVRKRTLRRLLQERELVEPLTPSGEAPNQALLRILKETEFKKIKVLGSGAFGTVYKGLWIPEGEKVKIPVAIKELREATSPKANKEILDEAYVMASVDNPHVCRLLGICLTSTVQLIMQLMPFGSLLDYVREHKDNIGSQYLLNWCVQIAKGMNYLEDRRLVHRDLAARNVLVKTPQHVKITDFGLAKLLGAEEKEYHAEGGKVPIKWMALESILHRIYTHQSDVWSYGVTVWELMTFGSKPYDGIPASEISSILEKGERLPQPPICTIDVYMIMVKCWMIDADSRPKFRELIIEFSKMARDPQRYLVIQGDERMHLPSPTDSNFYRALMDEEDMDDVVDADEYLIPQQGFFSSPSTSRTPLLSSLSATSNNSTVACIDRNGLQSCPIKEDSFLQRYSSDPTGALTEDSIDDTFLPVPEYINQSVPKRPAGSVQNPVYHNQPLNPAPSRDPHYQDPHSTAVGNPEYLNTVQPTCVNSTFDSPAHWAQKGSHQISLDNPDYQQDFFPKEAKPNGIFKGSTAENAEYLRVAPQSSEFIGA

Row | IC50 (EGFR Del19/T790M/C797S) | GI50 (BaF3-EGFR (WT) cells) | GI50 [1] | SMILES
1 | ≤ 0.05 µM | > 0.1 µM | > 0.1 µM | Cc1cn(-c2cc(Nc3nc(Nc4ccc5nccnc5c4P(C)(C)=O)c4cc[nH]c4n3)cc(C(F)(F)F)c2)cn1 [Example 106, dimethyl (6-((2-((3-(4-methyl-1H-imidazol-1-yl)-5-(trifluoromethyl)phenyl)amino)-7H-pyrrolo[2,3-d]pyrimidin-4-yl)amino)quinoxalin-5-yl)phosphine oxide]
2 | ≤ 0.05 µM | ≤ 0.05 µM | > 0.1 µM | C=CC(=O)Nc1cc(Nc2nc(Nc3ccc4nccnc4c3P(C)(C)=O)c3cc[nH]c3n2)c2c(c1N1CCC(N3CCN(C4CC4)CC3)CC1)OCCO2 [Example 133, N-(5-(4-(4-cyclopropyl-piperazin-1-yl)piperidin-1-yl)-8-((4-((5-(dimethyl-phosphoryl)quinoxalin-6-yl)amino)-7H-pyrrolo[2,3-d]pyrimidin-2-yl)amino)-2,3-dihydrobenzo [b][1,4]dioxin-6-yl)acrylamide]
3 | ≤ 0.05 µM | > 0.1 µM | 0.05 to 0.1 µM | CN1CCN(c2cc(OCC(F)(F)F)c(Nc3nc(Nc4ccc5nccnc5c4P(C)(C)=O)c4cc[nH]c4n3)cc2-c2cnn(C)c2)CC1 [Example 1, dimethyl (6-((2-((5-(1-methyl-1H-pyrazol-4-yl)-4-(4-methylpiperazin-1-yl)-2-(2,2,2-trifluoroethoxy)phenyl)amino)-7H-pyrrolo[2,3-d]pyrimidin-4-yl)amino)quinoxalin-5-yl)phosphine oxide]
4 | ≤ 0.05 µM | > 0.1 µM | > 0.1 µM | Cc1cc(Nc2nc(Nc3ccc4nccnc4c3P(C)(C)=O)c3cc[nH]c3n2)c(OCC(F)(F)F)cc1N1CCN(C)CC1 [Example 9, dimethyl (6-((2-((5-methyl-4-(4-methylpiperazin-1-yl)-2-(2,2,2-trifluoroethoxy)phenyl)amino)-7H-pyrrolo[2,3-d]pyrimidin-4-yl)amino)quinoxalin-5-yl)phosphine oxide]
5 | ≤ 0.05 µM | > 0.1 µM | > 0.1 µM | COc1cc(N2CCN(C)CC2)c(-c2cnc3ccccc3c2)cc1Nc1nc(Nc2ccc3nccnc3c2P(C)(C)=O)c2cc[nH]c2n1 [Example 71, (6-((2-((2-methoxy-4-(4-methylpiperazin-1-yl)-5-(quinolin-3-yl)phenyl)amino)-7H-pyrrolo[2,3-d]pyrimidin-4-yl)amino)quinoxalin-5-yl)dimethyl-phosphine oxide]
6 | ≤ 0.05 µM | > 0.1 µM | > 0.1 µM | COc1cc(N2CCN(C)CC2)c(-c2ccccc2)cc1Nc1nc(Nc2ccc3nccnc3c2P(C)(C)=O)c2cc[nH]c2n1 [Example 72, (6-((2-((4-methoxy-6-(4-methylpiperazin-1-yl)-[1,1′-biphenyl]-3-yl)amino)-7H-pyrrolo[2,3-d]pyrimidin-4-yl)amino)quinoxalin-5-yl)dimethyl-phosphine oxide]
7 | ≤ 0.05 µM | > 0.1 µM | > 0.1 µM | COc1cc(N2CCN(C)CC2)c(C2CC2)cc1Nc1nc(Nc2ccc3nccnc3c2P(C)(C)=O)c2cc[nH]c2n1 [Example 83, (6-((2-((5-cyclopropyl-2-methoxy-4-(4-methylpiperazin-1-yl)phenyl)amino)-7H-pyrrolo[2,3-d]pyrimidin-4-yl)amino)quinoxalin-5-yl)dimethyl-phosphine oxide]
8 | ≤ 0.05 µM | > 0.1 µM | ≤ 0.05 µM | Cn1cc(-c2cc(Nc3nc(Nc4ccc5nccnc5c4P(C)(C)=O)c4cc[nH]c4n3)c(OCC(F)(F)F)cc2N2CCC(N3CCOCC3)CC2)cn1 [Example 6, dimethyl (6-((2-((5-(1-methyl-1H-pyrazol-4-yl)-4-(4-morpholino-piperidin-1-yl)-2-(2,2,2-trifluoroethoxy)phenyl)amino)-7H-pyrrolo[2,3-d]pyrimidin-4-yl)amino)quinoxalin-5-yl)phosphine oxide]
9 | ≤ 0.05 µM | > 0.1 µM | > 0.1 µM | COc1cc(N2CCN(C)CC2)c(C#N)cc1Nc1nc(Nc2ccc3nccnc3c2P(C)(C)=O)c2cc[nH]c2n1 [Example 81, 5-((4-((5-(dimethyl-phosphoryl)quinoxalin-6-yl)amino)-7H-pyrrolo[2,3-d]pyrimidin-2-yl)amino)-4-methoxy-2-(4-methylpiperazin-1-yl)benzonitrile]
10 | ≤ 0.05 µM | > 0.1 µM | > 0.1 µM | COc1cc(N2CCN(C)CC2)c(-c2ccoc2)cc1Nc1nc(Nc2ccc3nccnc3c2P(C)(C)=O)c2cc[nH]c2n1 [Example 75, (6-((2-((5-(furan-3-yl)-2-methoxy-4-(4-methylpiperazin-1-yl)phenyl)amino)-7H-pyrrolo[2,3-d]pyrimidin-4-yl)amino)quinoxalin-5-yl)dimethyl-phosphine oxide]
11 | ≤ 0.05 µM | > 0.1 µM | ≤ 0.05 µM | COc1cc(N2CCC3(CC2)COC3)c(-c2cnn(C)c2)cc1Nc1nc(Nc2ccc3nccnc3c2P(C)(C)=O)c2cc[nH]c2n1 [Example 32, (6-((2-((2-methoxy-5-(1-methyl-1H-pyrazol-4-yl)-4-(2-oxa-7-azaspiro[3.5]nonane-7-yl)phenyl)amino)-7H-pyrrolo[2,3-d]pyrimidin-4-yl)amino)quinoxalin-5-yl)dimethyl-phosphine oxide]
12 | ≤ 0.05 µM | > 0.1 µM | > 0.1 µM | COc1ccc(C)cc1Nc1nc(Nc2ccc3nccnc3c2P(C)(C)=O)c2cc[nH]c2n1 [Example 68, (6-((2-((2-methoxy-5-methylphenyl)amino)-7H-pyrrolo[2,3-d]pyrimidin-4-yl)amino)quinoxalin-5-yl)dimethyl-phosphine oxide]
13 | ≤ 0.05 µM | > 0.1 µM | ≤ 0.05 µM | CN1CCN(c2c(-c3cnn(C)c3)cc(Nc3nc(Nc4ccc5nccnc5c4P(C)(C)=O)c4cc[nH]c4n3)c3c2CCO3)CC1 [Example 116, dimethyl (6-((2-((5-(1-methyl-1H-pyrazol-4-yl)-4-(4-methyl-piperazin-1-yl)-2,3-dihydrobenzo-furan-7-yl)amino)-7H-pyrrolo[2,3-d]pyrimidin-4-yl)amino)quinoxalin-5-yl)phosphine oxide]
14 | ≤ 0.05 µM | > 0.1 µM | 0.05 to 0.1 µM | COc1cc(N2CCN(C)CC2)c(-c2cnn(C3CC3)c2)cc1Nc1nc(Nc2ccc3nccnc3c2P(C)(C)=O)c2cc[nH]c2n1 [Example 115, (6-((2-((5-(1-cyclopropyl-1H-pyrazol-4-yl)-2-methoxy-4-(4-methylpiperazin-1-yl)phenyl)amino)-7H-pyrrolo[2,3-d]pyrimidin-4-yl)amino)quinoxalin-5-yl)dimethyl-phosphine oxide]
15 | ≤ 0.05 µM | > 0.1 µM | > 0.1 µM | COc1cc(F)c(-c2cnn(C)c2)cc1Nc1nc(Nc2ccc3nccnc3c2P(C)(C)=O)c2cc[nH]c2n1 [Example 31, (6-((2-((4-fluoro-2-methoxy-5-(1-methyl-1H-pyrazol-4-yl)phenyl)amino)-7H-pyrrolo[2,3-d]pyrimidin-4-yl)amino)quinoxalin-5-yl)dimethyl-phosphine oxide]
16 | ≤ 0.05 µM | > 0.1 µM | > 0.1 µM | COc1cc(N2CCN(C)CC2)c(-c2cnn(C)c2)cc1Nc1nc(Nc2cnc3ccccc3c2P(C)(C)=O)c2cc[nH]c2n1 [Example 89, (3-((2-((2-methoxy-5-(1-methyl-1H-pyrazol-4-yl)-4-(4-methylpiperazin-1-yl)phenyl)amino)-7H-pyrrolo[2,3-d]pyrimidin-4-yl)amino)quinolin-4-yl)dimethyl-phosphine oxide]
17 | ≤ 0.05 µM | > 0.1 µM | > 0.1 µM | Cc1cc(Nc2nc(Nc3cnc4ccccc4c3P(C)(C)=O)c3cc[nH]c3n2)c(OCC(F)(F)F)cc1N1CCC(N2CCN(C)CC2)CC1 [Example 13, dimethyl (3-((2-((5-methyl-4-(4-(4-methylpiperazin-1-yl)piperidin-1-yl)-2-(2,2,2-trifluoroethoxy)phenyl)amino)-7H-pyrrolo[2,3-d]pyrimidin-4-yl)amino)quinolin-4-yl)phosphine oxide]
18 | ≤ 0.05 µM | > 0.1 µM | ≤ 0.05 µM | COc1ccc(-c2cnn(C)c2)cc1Nc1nc(Nc2ccc3nccnc3c2P(C)(C)=O)c2cc[nH]c2n1 [Example 28, (6-((2-((2-methoxy-5-(1-methyl-1H-pyrazol-4-yl)phenyl)amino)-7H-pyrrolo[2,3-d]pyrimidin-4-yl)amino)quinoxalin-5-yl)dimethyl-phosphine oxide]
19 | ≤ 0.05 µM | > 0.1 µM | ≤ 0.05 µM | CCc1cc(Nc2nc(Nc3ccc4nccnc4c3P(C)(C)=O)c3cc[nH]c3n2)c(OC)cc1N1CCC(N2CCN(C)CC2)CC1 [Example 55, (6-((2-((5-ethyl-2-methoxy-4-(4-(4-methylpiperazin-1-yl)piperidin-1-yl)phenyl)amino)-7H-pyrrolo[2,3-d]pyrimidin-4-yl)amino)quinoxalin-5-yl)dimethyl-phosphine oxide]
